The structures appear in SMILES notation.

Data set [1] has as its system Trypanosoma brucei rhodesiense. Description: Antiprotozoal activity against Trypanosoma brucei rhodesiense STIB900 trypomastigotes measured after 72 to 74 hrs. Type of data set: functional, organism-based.
A short description of data set [2]: Cytotoxicity against rat myoblast L6 cells measured after 72 hrs by inverted microscopy. Type of data set: toxicity, cell-based.
Data set [3] in a line: Selectivity index, ratio of IC50 for cytotoxicity against rat myoblast L6 cells to IC50 for antiprotozoal activity against Trypanosoma brucei rhodesiense STIB900 trypomastigotes. Type of data set: toxicity, cell-based. The following applies: read-out: Selectivity Index.
Data set [4] can be described thus: Selectivity index, ratio of IC50 for cytotoxicity against rat myoblast L6 cells to IC50 for antileishmanial activity against axenically grown amastigotes Leishmania donovani MHOM-ET-67/L82. Format: toxicity, cell-based. The following applies: read-out: Selectivity Index.
In the next data set the test system is Plasmodium falciparum. In words: Antiplasmodial activity against Plasmodium falciparum NF54 intraerythrocytic forms measured after 72 hrs by 3H-hypoxanthine based liquid scintillation counting analysis. Type of data set: functional, organism-based.
The subject of another data set is Leishmania donovani. In words: Antileishmanial activity against axenically grown amastigotes Leishmania donovani MHOM-ET-67/L82 measured after 72 hrs by inverted microscopy. Format: functional, organism-based. As to conditions: MHOM-ET-67/L82, 72 h.
The nature of data set [5]: Selectivity index, ratio of IC50 for cytotoxicity against rat myoblast L6 cells to IC50 for antiprotozoal activity against Trypanosoma cruzi Tulahuen C2C4 intracellular amastigotes. Type of data set: toxicity, cell-based. The following applies: read-out: Selectivity Index.
The nature of data set [6]: Selectivity index, ratio of IC50 for cytotoxicity against rat myoblast L6 cells to IC50 for antiplasmodial activity against Plasmodium falciparum NF54 intraerythrocytic forms. As to conditions: read-out: Selectivity Index. Type of data set: toxicity, cell-based.
In another data set the test system is Trypanosoma cruzi. Description: Antiprotozoal activity against Trypanosoma cruzi Tulahuen C2C4 intracellular amastigotes measured after 96 hrs by inverted microscopy. Format: functional, organism-based. The following applies: Tulahuen C2C4, 96 h.

By IC50 is commonly meant the concentration that inhibits the measured activity by half. With `CC(C)C1=C2OC(C)(C)[C@@H]3CC4[C@@H](C)[C@H](O)C[C@@]5(CC[C@H]6C(C)(C)CCC[C@]67C[C@]45[C@@]23O7)C1=O` (some centres undefined), the IC50 stood at 39 µM in data set [1], 5.1 µM in the data set with Plasmodium falciparum, 10 µM with Leishmania donovani and 19 µM in the data set on Trypanosoma cruzi. The compound also registered an IC50 at 72 h in [2] of 36.7 µM. Moreover, the selectivity ratio in data set [3] came to 0.9; in data set [4], 3.7; in [5] it was 1.9; in data set [6], 7.1.
The compound `O=C(Cn1ccnc1[N+](=O)[O-])NCc1ccccc1` [BENZNIDAZOLE] displayed an IC50 with Trypanosoma cruzi of 2.61 µM.
`CC1=CC[C@]23CC[C@H]4C(C)(C)CCC[C@]45C[C@]24[C@@]1(O)C[C@H]1C(C)(C)OC(=C(C(C)C)C3=O)[C@@]14O5`: the IC50 was 10.1 µM in data set [1], 0.08 µM with Plasmodium falciparum, 6 µM in the data set with Leishmania donovani and 8.4 µM with Trypanosoma cruzi. Besides, half-maximal inhibition in data set [2] (IC50 at 72 h) was put at 6.9 µM. In addition, the selectivity ratio was 0.7 in data set [3], 1.1 in data set [4], 0.8 in data set [5] and 80 in data set [6].
Turning to `CC(C)C1=C2OC(C)(C)[C@@H]3CC4[C@@H](C)[C@H](B(F)F)C[C@@]5(CC[C@H]6C(C)(C)CCC[C@]67C[C@]45[C@@]23O7)C1=O` (some centres undefined), the IC50 in data set [1] is 24.4 µM; in the data set on Plasmodium falciparum, 0.8 µM; with Leishmania donovani, 4.8 µM; in the data set on Trypanosoma cruzi, 12 µM. Further, the IC50 at 72 h in [2] is 35 µM. In addition, the selectivity ratio in data set [3] is 1.4; in data set [4], 7.3; in data set [5], 2.9; in data set [6], 43.8.
Regarding `CC(C)C1=C2OC(C)(C)[C@@H]3CC4[C@H](C)[C@@H](O)C[C@@]5(CC[C@H]6C(C)(C)CCC[C@]67C[C@]45[C@@]23O7)C1=O` (some centres undefined), the IC50 in [1] came to 25.8 µM; in the data set with Plasmodium falciparum, 2.6 µM; with Leishmania donovani, 41.2 µM; with Trypanosoma cruzi, 33.3 µM. It took 136 µM to reach half-maximal inhibition in data set [2] (IC50 at 72 h). The selectivity ratio in data set [3] turned out to be 5.3; in data set [4] it was 3.3; in data set [5] it was 4.1; in [6], 53.1.
On to `CC(C)C1=C2OC(C)(C)[C@@H]3CC4[C@H](C)[C@@H](OC(=O)CCC(=O)O)C[C@@]5(CC[C@H]6C(C)(C)CCC[C@]67C[C@]45[C@@]23O7)C1=O` (some centres undefined), for which the IC50 in data set [1] turned out to be 24.4 µM; in the data set on Plasmodium falciparum, 5.6 µM; with Leishmania donovani it was 0.44 µM; in the data set with Trypanosoma cruzi it was 7 µM. This compound also displayed an IC50 at 72 h in data set [2] of 9.7 µM. Further, the selectivity ratio in data set [3] worked out at 0.4; in data set [4], 22; in [5], 1.4; in data set [6], 1.7.
For `CC1=C2C[C@H]3C(C)(C)OC4=C(C(C)C)C(=O)[C@@]5(C=C1)CC[C@H]1C(C)(C)CCC[C@]16C[C@]25[C@@]43O6`, the half-inhibitory concentration (IC50) stood at 58.6 µM in data set [1], 0.03 µM in the data set on Plasmodium falciparum, 14.3 µM with Leishmania donovani and 7.1 µM in the data set with Trypanosoma cruzi. In [2], this compound registered an IC50 at 72 h of 26.3 µM. The selectivity ratio was 0.4 in data set [3], 1.9 in data set [4], 3.6 in data set [5] and 843 in [6].
`CC1=CC[C@]23CC[C@H]4C(C)(C)CCC[C@]45C[C@]24C1=C[C@H]1C(C)(C)OC(=C(C(C)C)C3=O)[C@@]14O5`: the IC50 came to 32.1 µM in data set [1], 0.89 µM with Plasmodium falciparum, 27.2 µM in the data set on Leishmania donovani and 15.6 µM in the data set with Trypanosoma cruzi. For the same compound, the IC50 at 72 h in data set [2] came out at 23.9 µM. For the same compound, the selectivity ratio in data set [3] is 0.7; in data set [4], 0.9; in data set [5] it was 1.5; in [6], 26.8.
